Measured values published in patent publication US6844366B2, “Sulfonamide hydroxamates” (Syntex (U.S.A.) LLC, priority 1998, dated 2005).

**Q.** For COC(=O)c1ccc(CN([C@@H](C(=O)NO)C(C)C)S(=O)(=O)c2ccc(OC)cc2)cc1 [Compound 21, N-Hydroxy-2(R)-[(4-methoxycarbonylbenzyl)-(4-methoxybenzenesulfonyl)amino]-3-methylbutyramide], which melting point is on record?
**A.** 164 to 165 °C

**Q.** Which melting point does the source give for COc1cc(C)c(S(=O)(=O)N(Cc2ccc3c(c2)OCO3)[C@@H](C(=O)NO)[C@H](C)O)c(C)c1C [Compound 87, N-hydroxy-2(R)-[(3,4-methylenedioxybenzyl)-(4-methoxy-2,3,6-trimethylbenzenesulfonyl)amino]-3(S)-hydroxybutyramide] here?
**A.** 95 to 105 °C

**Q.** Which melting point does the source give for COc1cc(C)c(S(=O)(=O)N(Cc2ccc3[nH]cc(C(C)=O)c3c2)[C@@H](C(=O)NO)C(C)C)c(C)c1C [Compound 126, N-hydroxy-2(R)-[(1H-3-acetyl-indol-5-ylmethyl)-(4-methoxy-2,3,6-trimethylbenzenesulfonyl)amino]-3-methylbutyramide] here?
**A.** 163 to 171 °C

**Q.** For COc1cc(C)c(S(=O)(=O)N(Cc2ccc3c(c2)OCO3)[C@H](CNS(C)(=O)=O)C(=O)NO)c(C)c1 [Compound 128, N-hydroxy-2(R)-[(3,4-methylendioxybenzyl)-(2,6-dimethyl-4-methoxybenzenesulfonyl)amino]-3-(methanesulfonyl)amino-propionamide], which melting point is on record?
**A.** 98 to 102 °C

**Q.** With COc1cc(C)c(S(=O)(=O)N(Cc2ccc3c(c2)OCO3)[C@H](CNS(=O)(=O)c2ccccc2)C(=O)NO)c(C)c1 [Compound 129, N-hydroxy-2(R)-[(3,4-methylendioxybenzyl)-(2,6-dimethyl-4-methoxybenzenesulfonyl)amino]-3-benzenesulfonylamino-propionamide] as the compound, how does the melting point read?
**A.** 103 to 107 °C

**Q.** With COC(=O)c1ccc(C(=O)NC[C@H](C(=O)NO)N(Cc2ccc3c(c2)OCO3)S(=O)(=O)c2c(C)cc(OC)cc2C)cc1 [Compound 133, N-hydroxy-2(R)-[(3,4-methylendioxybenzyl)-(2,6-dimethyl-4-methoxybenzenesulfonyl)amino]-3-(4-methoxycarbonyl-benzoyl)amino-propionamide] as the compound, how does the melting point read?
**A.** 119 to 124 °C

**Q.** Which melting point does the source give for COc1cc(C)c(S(=O)(=O)N(Cc2ccc3[nH]ccc3c2)[C@@H](C(=O)NO)C(C)C)cc1C [Compound 145, N-hydroxy-2(R)-2-[(1H-indol-5-ylmethyl)-(4-methoxy-2,5-dimethylbenzenesulfonyl)-amino]-3-methylbutyramide] here?
**A.** 117 to 121 °C
